This note sets out measurements from ChEMBL document CHEMBL1151630, “Antineoplastic agents, 103. The isolation and structure of hypoestestatins 1 and 2 from the East African Hypoëstes verticillaris” (1984).

In this assay the test system is P388. Put plainly: Cytotoxicity against mouse P388 cells. The class given is functional.

Take `COc1ccc2c3c(c4cc(OC)c(OC)cc4c2c1)[C@@H](O)[C@@H]1CCCN1C3` [HYPOESTESTATIN 2]: the ED50 turned out to be 4 ×10⁻⁵ ug/ml.
